# Test system: HepG2
# Assay: Cytotoxicity against human HepG2 cells
# Format: functional, cell-based
row,SMILES,IC50 [µM]
1,O=C(O)C[C@@H]1C(=O)O[C@H]2[C@H](O)[C@@H](O)[C@H](OC(=O)/C=C/c3ccc(O)c(O)c3)O[C@@H]2COC(=O)c2cc(O)c(O)c3c2[C@H]1C(=O)O3 [BALANOPHOTANNIN F],48.4
2,O=C(/C=C/c1ccc(O)c(O)c1)O[C@@H]1O[C@H](COC(=O)[C@H]2CC(=O)c3oc(=O)c4cc(O)c(O)c(O)c4c32)[C@@H](O)[C@H](O)[C@H]1O [BALANOPHOTANNIN D],17.4
3,O=C(O[C@@H]1O[C@H](COC(=O)[C@H]2CC(=O)c3oc(=O)c4cc(O)c(O)c(O)c4c32)[C@@H](O)[C@H](OC(=O)c2cc(O)c(O)c(O)c2)[C@H]1O)c1cc(O)c(O)c(O)c1 [BALANOPHOTANNIN E],4.22
4,O=C(O)C[C@@]12Oc3c(O)c(O)cc(C(=O)OC[C@H]4O[C@@H](OC(=O)/C=C/c5ccc(O)c(O)c5)[C@H](O)[C@@H](O)[C@@H]4O)c3[C@@H]1[C@H](C(=O)O)OC2=O [BALANOPHOTANNIN G],18
5,O=c1[nH]cc(F)c(=O)[nH]1 [FLUOROURACIL],18.7

# — ChEMBL document CHEMBL1149850, “Cytotoxic hydrolyzable tannins from Balanophora japonica” (J Nat Prod, 2008)
